Values after ≈ are worked out from the molar mass of the structure shown. Where two headings read alike, the source gives them in different places.
Columns and labels:
Sau516 = test: Bacterial susceptibility testing (MIC), Sau516; format: cell-based; conditions: Staphylococcus aureus, liquid media, 37° C., 24 hours, lowest concentration reducing growth by 80% or more
From the text: (§1) Compounds may be tested for antimicrobial activity by susceptibility testing in liquid media in a 96 well format. Compounds may be dissolved in dimethylsulfoxide and tested in 10 doubling dilutions in the susceptibility assays. The organisms used in the assay may be grown overnight on suitable agar media and then suspended in a liquid medium appropriate for the growth of the organism. The suspension may be a 0.5 McFarland and a further 1 in 10 dilution may be advantageously made into the same liquid medium to prepare the final organism suspension in 100 μL. Plates may be incubated under appropriate conditions at 37° C. for 24 hours prior to reading. The Minimum Inhibitory Concentration (MIC) is intended to refer to the lowest drug concentration able to reduce growth by 80% or more.
(§2) Compounds may be evaluated against organisms such as Gram-positive species, including Staphylococcus aureus, Streptococcus pneumoniae, and Streptococcus pyogenes; and Gram-negative species including Haemophilus influenzae, and Moraxella catarrhalis.

Sau517 = test: Bacterial susceptibility testing (MIC), Sau517; format: cell-based; conditions: Staphylococcus aureus, liquid media, 37° C., 24 hours, lowest concentration reducing growth by 80% or more
From the text: as §1, §2

Spy838 = test: Bacterial susceptibility testing (MIC), Spy838; format: cell-based; conditions: Streptococcus pyogenes, liquid media, 37° C., 24 hours, lowest concentration reducing growth by 80% or more
From the text: as §1, §2

Spn548 = test: Bacterial susceptibility testing (MIC), Spn548; format: cell-based; conditions: Streptococcus pneumoniae, liquid media, 37° C., 24 hours, lowest concentration reducing growth by 80% or more
From the text: as §1, §2

Spn538 = test: Bacterial susceptibility testing (MIC), Spn538; format: cell-based; conditions: Streptococcus pneumoniae, liquid media, 37° C., 24 hours, lowest concentration reducing growth by 80% or more
From the text: as §1, §2

Hin446 = test: Bacterial susceptibility testing (MIC), Hin446; format: cell-based; conditions: Haemophilus influenzae, liquid media, 37° C., 24 hours, lowest concentration reducing growth by 80% or more
From the text: as §1, §2

Hin737 = test: Bacterial susceptibility testing (MIC), Hin737; format: cell-based; conditions: Haemophilus influenzae, liquid media, 37° C., 24 hours, lowest concentration reducing growth by 80% or more
From the text: as §1, §2

Hin158 = test: Bacterial susceptibility testing (MIC), Hin158; format: cell-based; conditions: Haemophilus influenzae, liquid media, 37° C., 24 hours, lowest concentration reducing growth by 80% or more
From the text: as §1, §2

Mca445 = test: Bacterial susceptibility testing (MIC), Mca445; format: cell-based; conditions: Moraxella catarrhalis, liquid media, 37° C., 24 hours, lowest concentration reducing growth by 80% or more
From the text: as §1, §2

[1] = biological target: Escherichia coli DNA gyrase A/B tetramer (Escherichia coli, UniProt P0AES4+P0AES6); test: DNA gyrase supercoiling activity fluorescence polarisation assay; format: biochemical
Escherichia coli DNA gyrase A/B tetramer, sequence (P0AES4 whole entry, one chain of several): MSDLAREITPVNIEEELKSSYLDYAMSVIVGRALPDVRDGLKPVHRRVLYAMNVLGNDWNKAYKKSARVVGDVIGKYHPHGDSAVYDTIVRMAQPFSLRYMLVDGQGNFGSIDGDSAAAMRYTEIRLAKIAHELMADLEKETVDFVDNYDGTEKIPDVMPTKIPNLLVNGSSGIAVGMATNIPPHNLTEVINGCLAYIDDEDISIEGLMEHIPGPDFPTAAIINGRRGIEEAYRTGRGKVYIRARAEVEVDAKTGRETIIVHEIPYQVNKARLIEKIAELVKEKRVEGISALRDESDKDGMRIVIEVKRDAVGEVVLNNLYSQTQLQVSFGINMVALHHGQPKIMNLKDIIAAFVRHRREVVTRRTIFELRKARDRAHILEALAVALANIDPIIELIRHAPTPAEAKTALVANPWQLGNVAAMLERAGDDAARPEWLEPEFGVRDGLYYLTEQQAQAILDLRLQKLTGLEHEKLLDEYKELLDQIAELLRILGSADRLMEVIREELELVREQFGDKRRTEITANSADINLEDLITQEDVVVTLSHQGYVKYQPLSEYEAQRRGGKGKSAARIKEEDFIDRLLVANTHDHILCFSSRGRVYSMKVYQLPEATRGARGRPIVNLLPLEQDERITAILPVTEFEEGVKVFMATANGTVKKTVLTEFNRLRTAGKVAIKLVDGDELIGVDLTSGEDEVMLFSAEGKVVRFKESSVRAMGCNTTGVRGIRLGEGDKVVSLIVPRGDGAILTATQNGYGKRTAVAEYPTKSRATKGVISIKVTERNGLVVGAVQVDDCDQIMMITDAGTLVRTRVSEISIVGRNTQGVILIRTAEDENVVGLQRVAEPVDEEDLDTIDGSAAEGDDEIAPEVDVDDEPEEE
Procedure, shortened: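 5 nM gyrase supercoils 130 μg/ml relaxed triplex-sequence plasmid with 0.3 mM ATP in Tris pH 7.5/KCl/MgCl2/spermidine buffer, 0.8% DMSO, ~30 min at ambient temperature, 5-10 compound concentrations. Quenched with 40 nM BODIPY-FL triplex probe at pH 3.5; anisotropy read after 60 min (485/535 nm). IC50 by nonlinear regression against no-compound and 5 uM ciprofloxacin controls.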

[2] = 5 nM enzyme, 0.3 mM ATP, relaxed plasmid, fluorescence anisotropy readout, read-out: E. coli DNA gyrase supercoiling IC50

C[C@@H]1CN2c3ccc(C#C[Si](C)(C)C)cc3CC3(C(=O)NC(=O)NC3=O)[C@H]2[C@H](C)O1 (racemic) [Example 1, (2R,4S,4aS)-rel-2,4-Dimethyl-8-((trimethylsilypethynyl)-2,4,4a,6-tetrahydro-1H,1′H-spiro[[1,4]oxazino[4,3-a]quinoline-5,5′-pyrimidine]-2′,4′,6′(3′H)-trion]
MIC (Sau516): 8 µg/mL (≈ 18.8 µM) | MIC (Sau517): 8 µg/mL (≈ 18.8 µM) | MIC (Spy838): 16 µg/mL (≈ 37.6 µM) | MIC (Spn548): 16 µg/mL (≈ 37.6 µM) | MIC (Spn538): 32 µg/mL (≈ 75.2 µM) | MIC (Hin446): 4 µg/mL (≈ 9.4 µM) | MIC (Hin737): 16 µg/mL (≈ 37.6 µM) | MIC (Hin158): 0.13 µg/mL (≈ 0.305 µM) | MIC (Mca445): 2 µg/mL (≈ 4.7 µM) | IC50 [1]: 7570 nM

C[C@H]1CN2c3c(cc(C#Cc4cn(C)cn4)c(F)c3F)CC3(C(=O)NC(=O)NC3=O)[C@@H]2[C@@H](C)O1 (racemic) [Example 13, (2S,4R,4aR)-rel-9,10-Difluoro-2,4-dimethyl-8-[(1-methyl-1H-imidazol-4-yl)ethynyl]-1,2,4,4a-tetrahydro-2′H,6H-spiro[1,4-oxazino[4,3-a]quinoline-5,5′-pyrimidine]-2′,4′,6′-(1′H,3′H)-trione]
IC50 [1]: 2170 nM

C[C@@H]1CN2c3c(cc(C(=O)NC4CCN(C(=O)OC(C)(C)C)C4)c(F)c3F)CC3(C(=O)NC(=O)NC3=O)[C@H]2[C@H](C)O1 (relative stereo) [Example 63, tert-Butyl 3-({[2R,4S,4aS)-rel-9,10-difluoro-2,4-dimethyl-2′,4′,6′-trioxo-1,1′,2,3′,4,4′,4a,6′-octahydro-2′H,6H-spiro[1,4-oxazino[4,3-a]quinoline-5,5′-pyrimidin]-8-yl]carbonyl}amino)pyrrolidine-1-carboxylate]
IC50 [1, 2]: 6400 nM

C/C(=N\Nc1ncccn1)c1cc2c(c(F)c1F)N1C[C@@H](C)O[C@@H](C)[C@@H]1C1(C2)C(=O)NC(=O)NC1=O (relative stereo) [Example 59, (2R,4S,4aS)-rel-9,10-Difluoro-2,4-dimethyl-8-{(1E)-1-[2-(pyrimidin-2-yl)hydrazinylidene]ethyl}-1,2,4,4a-tetrahydro-2′H,6H-spiro[1,4-oxazino[4,3-a]quinoline-5,5′-pyrimidine]-2′,4′,6′(1′H,3′H)-trione]
IC50 [1]: 1640 nM

C[C@@H]1CN2c3c(F)cc(C#Cc4cccs4)cc3CC3(C(=O)NC(=O)NC3=O)[C@H]2[C@H](C)O1 (relative stereo) [Example 40, (2R,4S,4aS)-rel-10-Fluoro-2,4-dimethyl-8-(thiophen-2-ylethynyl)-1,2,4,4a-tetrahydro-2′H,6H-spiro[1,4-oxazino[4,3-a]quinoline-5,5′-pyrimidine]-2′,4′,6′(1′H,3′H)-trione]
IC50 [1]: 1140 nM

C[C@@H]1CN2c3c(cc(C(=O)NC4CCCN(C)C4)c(F)c3F)CC3(C(=O)NC(=O)NC3=O)[C@H]2[C@H](C)O1 (relative stereo) [Example 69, (2R,4S,4aS)-rel-9,10-Difluoro-2,4-dimethyl-N-(1-methylpiperidin-3-yl)-2′,4′,6′-trioxo-1,1′,2,3′,4,4′,4a,6′-octahydro-2′H,6H-spiro[1,4-oxazino[4,3-a]quinoline-5,5′-pyrimidine]-8-carboxamide]
IC50 [1]: 8680 nM

C[C@@H]1CN2c3ccc(NS(=O)(=O)N4CCOCC4)cc3CC3(C(=O)NC(=O)NC3=O)[C@H]2[C@H](C)O1 (relative stereo) [Example 75, N-[(2R,4S ,4aS)-rel-2,4-Dimethyl-2′,4′,6′-trioxo-1,1′,2,3′,4,4′,4a,6′-octahydro-2′H,6H-spiro[1,4-oxazino[4,3-a]quinoline-5,5′-pyrimidin]-8-yl]morpholine-4-sulfonamide]
IC50 [1]: 660 nM

C[C@@H]1CN2c3c(cc(C#Cc4cccnc4)c(F)c3F)CC3(C(=O)NC(=O)NC3=O)[C@H]2[C@H](C)O1 (relative stereo) [Example 18, (2R,4S,4aS)-rel-9,10-Difluoro-2,4-dimethyl-8-(pyridin-3-ylethynyl)-1,2,4,4a-tetrahydro-2′H,6H-spiro[1,4-oxazino[4,3-a]quinoline-5,5′-pyrimidine]-2′,4′,6′(1′H,3′H)-trione]
IC50 [1]: 500 nM

C[C@@H]1CN2c3c(F)cc(C#Cc4nncs4)cc3CC3(C(=O)NC(=O)NC3=O)[C@H]2[C@H](C)O1 (relative stereo) [Example 36, (2R,4S,4aS)-rel-10-Fluoro-2,4-dimethyl-8-(1,3,4-thiadiazol-2-ylethynyl)-1,2,4,4a-tetrahydro-2′H,6H-spiro[1,4-oxazino[4,3-a]quinoline-5,5′-pyrimidine]-2′,4′,6′(1′H,3′H)-trione]
IC50 [1]: 710 nM

C/C(=N\Nc1ccccc1)c1cc2c(c(F)c1F)N1C[C@@H](C)O[C@@H](C)[C@@H]1C1(C2)C(=O)NC(=O)NC1=O (relative stereo) [Example 58, (2R,4S,4aS)-rel-9,10-Difluoro-2,4-dimethyl-8-[(1E)-1-(2-phenylhydrazinylidene)ethyl]-1,2,4,4a-tetrahydro-2′H,6H-spiro[1,4-oxazino[4,3-a]quinoline-5,5′-pyrimidine]-2′,4′,6′(1′H,3′H)-trione]
IC50 [1]: 980 nM

C[C@@H]1CN2c3cc(F)c(C#Cc4cccnc4)cc3CC3(C(=O)NC(=O)NC3=O)[C@H]2[C@H](C)O1 (relative stereo) [Example 32, (2R,4S,4aS)-rel-9-Fluoro-2,4-dimethyl-8-(pyridin-3-ylethynyl)-1,2,4,4a-tetrahydro-2′H,6H-spiro[1,4-oxazino[4,3-a]quinoline-5,5′-pyrimidine]-2′,4′,6′(1′H,3′H)-trione]
IC50 [1]: 2240 nM

C[C@@H]1CN2c3c(F)cc(C#Cc4cncs4)cc3CC3(C(=O)NC(=O)NC3=O)[C@H]2[C@H](C)O1 (relative stereo) [Example 39, (2R,4S,4aS)-rel-10-Fluoro-2,4-dimethyl-8-(1,3-thiazol-5-ylethynyl)-1,2,4,4a-tetrahydro-2′H,6′-spiro[1,4-oxazino[4,3-a]quinoline-5,5′-pyrimidine]-2′,4′,6′(1′H,3′H)-trione]
IC50 [1, 2]: 870 nM

C[C@@H]1CN2c3cc(F)c(C#Cc4nc5ccccc5o4)cc3CC3(C(=O)NC(=O)NC3=O)[C@H]2[C@H](C)O1 (relative stereo) [Example 35, (2R,4S,4aS)-rel-8-(1,3-Benzoxazol-2-ylethynyl)-9-fluoro-2,4-dimethyl-1,2,4,4a-tetrahydro-2′H,6H-spiro[1,4-oxazino[4,3-a]quinoline-5,5′-pyrimidine]-2′,4′,6′(1′H,3′H)-trione]
IC50 [1]: 1480 nM

C[C@@H]1CN2c3c(cc(C#Cc4nccn4C)c(F)c3F)CC3(C(=O)NC(=O)NC3=O)[C@H]2[C@H](C)O1 (racemic) [Example 12, (2R,4S,4aS)-rel-9,10-Difluoro-2,4-dimethyl-8-[(1-methyl-1H-imidazol-2-yl)ethynyl]-1,2,4,4a-tetrahydro-2′H,6H-spiro[1,4-oxazino≡[4,3-a]quinoline-5,5′-pyrimidine]-2′,4′,6′(1′H,3H)-trione]
IC50 [1]: 690 nM

C/C(=N\N1CC(=O)NC1=O)c1cc2c(c(F)c1F)N1C[C@@H](C)O[C@@H](C)[C@@H]1C1(C2)C(=O)NC(=O)NC1=O (relative stereo) [Example 52, (2R,4S,4aS)-rel-8-[(1E)-N-(2,4-Dioxoimidazolidin-1-yl)ethanimidoyl]-9,10-difluoro-2,4-dimethyl-1,2,4,4a-tetrahydro-2′H,6H-spiro[1,4-oxazino[4,3-a]quinoline-5,5′-pyrimidine]-2′,4′,6′(1′H,3′H)-trione]
IC50 [1]: 12800 nM

C[C@@H]1CN2c3c(cc(/C=N/N4CCCC4)c(F)c3F)CC3(C(=O)NC(=O)NC3=O)[C@H]2[C@H](C)O1 (relative stereo) [Example 21, (2R,4S,4 aS)-rel-9,10-Difluoro-2,4-dimethyl-8-[(E)-(pyrrolidin-1-ylimino)methyl]-1,2,4,4a-tetrahydro-2′H,6H-spiro[1,4-oxazino[4,3-a]quinoline-5,5′-pyrimidine]-2′,4′,6′(1′H,3′H)-trione]
IC50 [1]: 2250 nM

C[C@@H]1CN2c3c(cc(C#Cc4ccc(-c5nnn[nH]5)s4)c(F)c3F)CC3(C(=O)NC(=O)NC3=O)[C@H]2[C@H](C)O1 (relative stereo) [Example 14, (2R,4S,4aS)-rel-9,10-Difluoro-2,4-dimethyl-8-{[5-(1H-tetrazol-5-yl)thiophen-2-yl]ethynyl}-1,2,4,4a-tetrahydro-2′H,6H-spiro[1,4-oxazino[4,3-a]quinoline-5,5′-pyrimidine]-2′,4′,6′(1′H,3′H)-trione]
IC50 [1]: 1120 nM

Source: patent publication US20100261719A1, “CHEMICAL COMPOUNDS” (priority 2007, published 2010)
